The source of these data is paper PMC4482483, “Cationic Cell-Penetrating Peptides Are Potent Furin Inhibitors” (PLoS ONE, 2015).

The target in data set [1] is T1, soluble human furin (Homo sapiens, UniProt P09958).
T1 construct: Soluble human furin was purified from the conditioned medium; made in house; host or cells: CHO DG44 cells (stably transfected, methotrexate-amplified); purified from conditioned medium
Nature of the data set: furin enzyme assay with fluorogenic substrate pERTKR-mca. Type of data set: biochemical. As to conditions: for furin inhibition: peptide at 100 μM, 100 μM pERTKR-mca, Fig 1. How it is done: Soluble human furin was purified from the conditioned medium of stably-transfected, methotrexate-amplified CHO DG44 cells, as previously described. […] The HIV-1 TAT47-57 peptide was purchased from Creative Peptides (Shirley, NY). The Chariot reagent was purchased from Active Motif (Carlsbad, CA). […] The fourth peptide (W4-[R5]; N-acetyl-WWWW-[KRRRRR]) is N-terminally acetylated.
The furin assay was performed in 96-well polypropylene microtiter plates in a final volume of 50 μl, containing 100 mM HEPES, pH 7.0, 5 mM CaCl2, 0.1% Brij 35, 0.1% NaN3, and 0.1 mg/ml BSA. The substrate p-Glu-Arg-Thr-Lys-Arg-4-methylcoumaryl-7-amide (pERTKR-mca; Peptide Institute, Lexington, KY) was used at a final concentration of 100 μM. Furin was used at a final concentration of 20 nM. Reaction mixtures were incubated at 37°C and fluorescence measurements (380 nm excitation, 460 nm emission) were taken under kinetic conditions every minute for 60 min in a SpectraMax M2 microplate reader. […] After a 30-min preincubation at room temperature, 100 μM of pERTKR-methylaminocoumarin (mca) was added, and residual enzyme activities were monitored by measuring mca fluorescence intensity. Data were analyzed using Prism 5 as described previously. Due to cost considerations, Ki determinations were not performed for the HIV TAT peptide or for the Chariot reagent.
Soluble human furin, pre-incubated for 20 min at room temperature in the presence of (a) HIV-1 TAT (47–57) or (b) Chariot peptide, was tested at the specified concentrations. Furin activity was assessed by measuring the release of the fluorescent mca product from the fluorogenic substrate, pERTKR-mca.

The test system of data set [2] is intracellular convertase activity in CHO-GRAPfurin cells. Nature of the data set: SEAP activity assay (GRAPfurin Golgi reporter). Type of data set: cell-based. As to conditions: 1 μM, 20–24 h at 37 °C. The method, then: CHO-GRAPfurin cells expressing the hybrid reporter protein GRAPfurin, consisting of the secreted alkaline phosphatase (SEAP) protein fused to a Golgi retention signal and a specific furin recognition/cleavage site, […] The medium was collected, centrifuged, and heated for 30 min at 65°C to inactivate non-relevant phosphatases. To test SEAP activity, 2.5 μl of heated medium was mixed with 100 μl of assay buffer (100 mM Tris-HCl, pH 10, 100 mM NaCl, 5 mM MgCl2) and 100 μl of 36 μM 4-methylumbelliferyl phosphate (MUP), a phosphatase substrate, made in 50 mM Tris-HCl, pH 10. Fluorescence was measured every 20 seconds after excitation at 365 nm and recording emission at 460 nm at 37°C for 1 h. Since SEAP released from the tethered furin reporter is secreted, SEAP levels in the medium are proportional to the activity of Golgi furin [24, 25]. The experiments were independently repeated three times using triplicate wells per condition.
Fig 4 Cyclic polyarginine peptides inhibit cellular convertase activity. (a) CHO cells were incubated with each compound at 1 μM for 24 h at 37°C, and cell viability was monitored by incubation for 4 h with WST-1. […] Secreted alkaline phosphatase activity was measured in the medium. […]

Data set [3] has as its target T1, soluble human furin. As to conditions: cited from earlier work; for Ki: furin.
The subject of data set [4] is HT1080 fibrosarcoma cells. Nature of the data set: Oris cell migration assay. As to conditions: 10 μM peptide. Type of data set: cell-based. The method, then:
HT1080 fibrosarcoma cells (ATCC# CCL-121) were cultured to 80% confluence in growth medium (MEM (Earle’s salts + L-glutamine) 10% FBS, 1:100 non-essential amino acids (NEAA), 1 mM sodium pyruvate, 500 U/ml penicillin-streptomycin, and 1% gentamycin; Life Technologies). Cells were plated in an Oris Cell Migration Assay (Platypus Technologies) 96-well plate at 10^5 cells per well, following the manufacturer’s protocol. The next day, the growth medium was removed, the wells rinsed with PBS, and the cells were incubated in assay medium MEM (Earle’s salts + L-glutamine) containing 10% heat-inactivated FBS, 1:100 NEAA, 1 mM sodium pyruvate, 500U/ml penicillin-streptomycin, and 1% gentamycin in the presence or absence of inhibitors for 24 h at 37°C and 5% CO2. After incubation cells were rinsed with PBS (calcium and 20 mM HEPES, pH 7.4, as per the manufacturer’s protocol), and incubated with the Live / Dead Cell Stain Kit containing 2 μM calcein AM and 4 μM ethidium homodimer (EthD-1) for 30 min at 37°C and 5% CO2. Fluorescence was then measured at 485/528 nm excitation/emission for calcein AM, and 530/645 nm for EthD-1. […]
Fig 2 Effect of HIV-1 TAT47-57 peptide on cell migration of fibrosarcoma HT1080 cells. Cells were incubated with either 10 μM of peptide or vehicle (water) for 24 h at 37°C and cell migration was measured as described in “Materials and Methods”. […]

Like-named read-outs stand apart in the source and are kept apart here.

T1 sequence (P09958 108-715 limits assumed): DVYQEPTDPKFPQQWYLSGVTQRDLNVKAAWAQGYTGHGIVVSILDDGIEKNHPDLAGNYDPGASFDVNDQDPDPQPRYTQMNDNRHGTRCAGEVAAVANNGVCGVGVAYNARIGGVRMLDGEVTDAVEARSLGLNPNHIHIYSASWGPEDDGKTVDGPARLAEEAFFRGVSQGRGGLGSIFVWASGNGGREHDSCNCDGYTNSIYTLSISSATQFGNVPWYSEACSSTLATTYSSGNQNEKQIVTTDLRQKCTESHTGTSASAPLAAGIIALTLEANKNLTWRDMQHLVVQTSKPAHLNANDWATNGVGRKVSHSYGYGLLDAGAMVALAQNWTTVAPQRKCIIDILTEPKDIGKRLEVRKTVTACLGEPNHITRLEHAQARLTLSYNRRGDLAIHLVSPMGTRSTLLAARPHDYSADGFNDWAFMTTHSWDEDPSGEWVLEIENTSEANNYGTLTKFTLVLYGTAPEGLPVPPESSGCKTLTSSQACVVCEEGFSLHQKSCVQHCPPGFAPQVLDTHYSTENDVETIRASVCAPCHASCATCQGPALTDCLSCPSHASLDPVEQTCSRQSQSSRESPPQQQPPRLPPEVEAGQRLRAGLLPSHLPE

KETWWETWWTEWSQPKKKRKV [Chariot]: the furin inhibition with soluble human furin [1] is recorded as ~ 60%. On to `CC(=O)N[C@@H](Cc1c[nH]c2ccccc12)C(=O)N[C@@H](Cc1c[nH]c2ccccc12)C(=O)N[C@@H](Cc1c[nH]c2ccccc12)C(=O)N[C@@H](Cc1c[nH]c2ccccc12)C(=O)NCCCC[C@@H]1NC(=O)[C@H](CCCNC(=N)N)NC(=O)[C@H](CCCNC(=N)N)NC(=O)[C@H](CCCNC(=N)N)NC(=O)[C@H](CCCNC(=N)N)NC(=O)[C@H](CCCNC(=N)N)NC1=O` [W4-[R5], N-acetyl-WWWW-[KRRRRR]], for which the “inhibition of intracellular convertase activity (SEAP release)” value in data set [2] is on record as “most effective compound in cells”. Also, the Ki – broadly, a dissociation constant, usually derived from enzyme kinetics or from competition with a known ligand – at soluble human furin [1] amounted to 100 ± 140 nM. At soluble human furin [1], `N=C(N)NCCC[C@@H]1NC(=O)[C@H](Cc2c[nH]c3ccccc23)NC(=O)[C@H](CS)NC(=O)[C@H](Cc2c[nH]c3ccccc23)NC(=O)[C@H](CCCNC(=N)N)NC(=O)[C@H](Cc2c[nH]c3ccccc23)NC(=O)[C@H](CCCNC(=N)N)NC(=O)[C@H](Cc2c[nH]c3ccccc23)NC(=O)[C@H](CCCNC(=N)N)NC(=O)[C@H](Cc2c[nH]c3ccccc23)NC1=O` [[W5R4C], [WRWRWRWRWC]] yielded a Ki of 340 ± 20 nM. As for Nona-D-arginine amide, at soluble human furin [3], the “inhibition constants against furin and other convertases” value was “nanomolar range”; the Ki was 1.3 ± 2 nM. For the compound hexa-D-arginine amide, on soluble human furin [3], the “inhibition constants against furin and other convertases” value is recorded as “nanomolar range”; the Ki was 106 ± 10 nM. On to `N=C(N)NCCC[C@H](NC(=O)[C@H](CCCNC(=N)N)NC(=O)[C@H](CCCNC(=N)N)NC(=O)[C@H](CCC(N)=O)NC(=O)[C@H](CCCNC(=N)N)NC(=O)[C@H](CCCNC(=N)N)NC(=O)[C@H](CCCCN)NC(=O)[C@H](CCCCN)NC(=O)[C@H](CCCNC(=N)N)NC(=O)CNC(=O)[C@@H](N)Cc1ccc(O)cc1)C(=O)O` [HIV-1 TAT47-57, YGRKKRRQRRR], for which, in data set [4], the “toxicity to HT1080 cells” value is listed as “non-toxic”. For the same compound, at soluble human furin [1], the furin inhibition result is given as “nearly complete”. Moreover, the inhibition (in general, the relative decrease from the control value, in per cent) at 10 µM at soluble human furin [1] (read-out: furin inhibition) was roughly 60%.
